No end group written: not given here.

For one assay, the system named is μ opioid receptor (MOR). The conditions noted are these: ref Markham, 2020; cited from earlier work. From the text: GPCR ligands were traditionally thought to act equally on all the downstream signaling pathways of the GPCRs, including the multiple signaling pathways mediated by G proteins and β-arrestin.
The next assay has as its target APJ-Venus (UniProt P35414).
Assay [1] concerns the target Apelin receptor (APJ) (UniProt P35414).
Assay [2] addresses APJ-Renilla luciferase (Rluc) (UniProt P35414).
In assay [3] the target is Apelin receptor (APJ) (UniProt P35414). Briefly: radioligand binding; competition binding: HEK-293/APJ membrane preparation 20 μg/well, 0.1 nM [125I]-apelin-13, test peptides in 5-fold dilutions starting at 10 µM; 50 mM HEPES pH 7.4, 5 mM MgCl2, 1 mM CaCl2, 0.2% BSA; 30°C, 2 h; Ki calculated from IC50.
The subject of assay [4] is APJ. The conditions noted are these: cited from earlier work. From the text:
Elabela (also known as apela or toddler), which has little sequence homology with Apelin, has recently been identified as the second endogenous APJ ligand. […] Elabela is highly expressed during embryogenesis and in adult kidney. Elabela is also derived from a precursor of 54 amino acids.

In assay [5] the test system is APJ. Also noted: method as in Nyimanu et al., 2019. The conditions noted are these: ref Nyimanu et al., 2019; cited from earlier work.
Assay [6] has as its system pulmonary arterial hypertension (PAH). Also noted: method as in Yang et al., 2017. The settings on record: exogenous peptide; ref Yang et al., 2017; cited from earlier work.
Assay [7] has as its system APJ. The conditions noted are these: ERK1/2-dependent; ref Perjés et al., 2016; cited from earlier work. From the text:
Elabela (also known as apela or toddler), which has little sequence homology with Apelin, has recently been identified as the second endogenous APJ ligand. […] Elabela is highly expressed during embryogenesis and in adult kidney. Elabela is also derived from a precursor of 54 amino acids. Its 13 C-terminal amino acids are highly conserved among all spe ...

Another assay addresses T1, APJ (Apelin receptor) (Homo sapiens, UniProt P35414).
T1 sequence (P35414 1-380): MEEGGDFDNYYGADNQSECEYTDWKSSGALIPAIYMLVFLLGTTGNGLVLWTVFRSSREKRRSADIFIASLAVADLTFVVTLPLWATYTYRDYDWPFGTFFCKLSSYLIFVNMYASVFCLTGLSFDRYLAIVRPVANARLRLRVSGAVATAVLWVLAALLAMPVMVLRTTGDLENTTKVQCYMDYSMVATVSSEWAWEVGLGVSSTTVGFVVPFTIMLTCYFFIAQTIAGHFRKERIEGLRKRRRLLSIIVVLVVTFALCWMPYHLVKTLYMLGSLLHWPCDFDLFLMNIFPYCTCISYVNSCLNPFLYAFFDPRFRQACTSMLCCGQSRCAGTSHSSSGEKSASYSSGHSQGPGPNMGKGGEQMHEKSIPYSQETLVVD
The assay is described as follows: Radioligand competition binding assay, [125I]-apelin-13, HEK-293/APJ membranes. Also noted: APJ membrane preparations were obtained from transiently transfected HEK293 cells; host or cells: HEK293 cells, transiently transfected; membranes prepared. (In general: Loss of bound radioactivity is the signal in a displacement assay; it reports binding, not function.)

Experimental for APJ (Apelin receptor): APJ membrane preparations were obtained from transiently transfected HEK293 cells. HEK293 cells were cultured in complete DMEM (DMEM plus 10% FBS) for 24 h, until they reached at least 70% confluence. Transfection reagent containing 20 μg of the APJ expression plasmid was added, and the cells were incubated for another 24 h. The cells were then harvested into 25 ml homogenization buffer (HB) [250 mM sucrose and 25 mM HEPES (pH 7.3); adjusted to pH 7.5 at 4°C and then filtered] supplemented with 250 μL phenylmethylsulfonyl fluoride (PMSF), homogenized using an IKA T25 Ultra Turrax (24,000 rpm), and centrifuged at 6,025 rpm for 15 min at 4°C. […]
The binding reaction was stopped by rapid filtration through polyethyleneimine (PEI)-coated GF/B plates using a cell harvester, and the plates were washed three times with ice-cold wash buffer [50 mM HEPES (pH 7.4), 500 mM NaCl, and 0.1% BSA; filtered and stored at 4°C]. The filtration plates were dried at 37°C for 2 h; 50 μL scintillation cocktail (Perkin Elmer, Wellesley, MA, United States), was added to each well; and the radioactivity was measured using a Perkin Elmer 1450 MicroBeta TriLux Microplate Scintillation and Luminescence Counter.
The binding reaction was stopped, the plates were washed and dried, the scintillation cocktail was added, and the radioactivity was measured as described above.

As for `COc1ccsc1CNCC[C@@]1(c2ccccn2)CCOC2(CCCC2)C1` [oliceridine], the “signaling bias at opioid receptor (in words)” value in the assay on μ opioid receptor (MOR) is “selective for G protein pathway, and the effect of β - arrestin recruitment is low”.
In the assay with APJ-Venus, Apelin-17 (peptide) had a LogEC50 of the ligand-induced interaction of APJ with β-arrestin 1 (BRET between APJ-Venus and β-arrestin 1-Rluc, HEK293 cells) of -7.9; a LogEC50 of the ligand-induced interaction of APJ with β-arrestin 2 (BRET between APJ-Venus and β-arrestin2-Rluc, HEK293 cells) of -8.33. For the same compound, in the assay with Apelin receptor (APJ) [1], the LogEC50 of the ligand-induced interaction between β-arrestin 1 and AP2 (BRET between β-arrestin 1-Rluc and β2-adaptin-EYFP in HEK293 cells co-transfected with APJ, 30 min) was -8.48; the LogEC50 of the ligand-induced interaction between β-arrestin 2 and AP2 (BRET between β-arrestin 2-Rluc and β2-adaptin-EYFP in HEK293 cells co-transfected with APJ, 30 min) is -7.17. In [2], this compound registered a LogEC50 of the ligand-induced recruitment of GRK2 to APJ (BRET between APJ-Rluc and GRK2-GFP2, HEK293 cells) of -8.19; a LogEC50 of the ligand-induced recruitment of GRK5 to APJ (BRET between APJ-Rluc and GRK5-GFP2, HEK293 cells) of -8.58. Besides, in the assay with Apelin receptor (APJ) [3], the IC50 is 5.2 nM.
In the case of “Apelin-36-[L28A]: G protein biased APJ agonist (LVQPRGSRNGPGPWQGGRRKFRRQRPRASHKGPMPF; Apelin-36; UniProt Q9ULZ1 42-77, looked up, variant L28A)”, the “signaling bias (in words)” value in the assay on APJ [4] (ref Nyimanu et al., 2019) was “G protein biased APJ agonists”. Moreover, in the assay on APJ [5], the “binding to APJ (in words)” value is recorded as “nanomolar affinities”.
Elabela: in assay [6], the “effect in PAH in rats (in words)” value was “reduce the severity of cardiopulmonary remodeling and function in PAH in rats”. Moreover, the “APJ signaling (in words)” value in the assay on APJ [4] (ref Peverelli et al., 2014) is “inhibit cyclic AMP (cAMP) production, activate the extracellular signal-regulated kinases (ERK1/2), and mobilize intracellular calcium through APJ internalization”. Further, the “cardiac contractility (in words)” value in the assay with APJ [7] is “increase cardiac contractility in an ERK1/2-dependent manner”.
On APJ (Apelin receptor), “LVQPRGSRNGPGPWQGGRRKFRRQRPRLSHKGPMPF [Apelin-36]” registered a Ki of 1.74 nM.

Usually IC50 stands for the concentration at which inhibition is half-maximal. For orientation: Ki means a dissociation constant, usually derived from enzyme kinetics or from competition with a known ligand.
